# According to PMC9090415, “Discovery of small molecule inhibitors of Plasmodium falciparum apicoplast DNA polymerase” (Journal of Enzyme Inhibition and Medicinal Chemistry, 2022):
# Target: P. falciparum apicoplast DNA polymerase (Pf-apPOL) (Plasmodium falciparum, UniProt Q8ILY1)
# Experiment: Fluorescence-based high-throughput DNA polymerase assay (molecular beacon), primary screen and dose-response;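 on % inhibition ApPOL 90': test concentration in µM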;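 on % inhibition apPOL 180': test concentration in µM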
# Type: biochemical
# Summary of the method: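 Single-point screening used 10 µM compound with 20 nM polymerase, 20 nM hairpin substrate and 6 µM dNTPs for 90 min at 25 °C. Confirmatory titrations (2.5–80 µM) followed fluorescence at three times, and IC50 was derived from a fit including a cooperativity term n.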
# [1] = supplemental file 2, sheet IC50 nontoxic compounds; Pf-apPOL
# Sequence of P. falciparum apicoplast DNA polymerase (Pf-apPOL) (Q8ILY1 entry or part of it): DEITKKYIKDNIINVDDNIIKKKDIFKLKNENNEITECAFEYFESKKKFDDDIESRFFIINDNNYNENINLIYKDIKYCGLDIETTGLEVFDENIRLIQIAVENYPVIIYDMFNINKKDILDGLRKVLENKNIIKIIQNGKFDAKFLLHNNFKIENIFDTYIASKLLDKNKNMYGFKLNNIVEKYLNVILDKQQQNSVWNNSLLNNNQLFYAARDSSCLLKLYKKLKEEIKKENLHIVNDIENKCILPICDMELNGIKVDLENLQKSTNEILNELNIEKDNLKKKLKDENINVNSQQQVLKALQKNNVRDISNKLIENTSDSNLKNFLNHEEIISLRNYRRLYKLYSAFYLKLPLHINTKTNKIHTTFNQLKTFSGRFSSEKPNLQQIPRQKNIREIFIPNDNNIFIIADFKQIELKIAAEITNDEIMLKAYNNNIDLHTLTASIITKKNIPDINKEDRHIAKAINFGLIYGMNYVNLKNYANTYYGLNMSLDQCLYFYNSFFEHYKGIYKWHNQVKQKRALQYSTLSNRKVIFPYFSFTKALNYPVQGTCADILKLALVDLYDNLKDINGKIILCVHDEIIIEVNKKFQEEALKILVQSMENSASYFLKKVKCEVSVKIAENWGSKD
compound,measurement,setting,value
"Cn1nc(C(=O)N2CCc3c(nc4cc(-c5ccccc5)[nH]n4c3=O)C2)c2ccccc21 [Molecule 18, O=c1c2CCN(Cc2nc2n1[nH]c(c2)c1ccccc1)C(=O)c1nn(c2c1cccc2)C]",DNA Pol,"186 hits, value of the hit list (primary screen); unit not given; 90 min, 10 µM",46
same,% inhibition Apo pol 10',DRC-1; 10'; concentration 2.5,9%
same,% inhibition Apo pol 10',DRC-1; 10'; concentration 5,28%
same,% inhibition Apo pol 10',DRC-1; 10'; concentration 10,66%
same,% inhibition Apo pol 10',DRC-1; 10'; concentration 20,74%
same,% inhibition Apo pol 10',DRC-1; 10'; concentration 40,72%
same,% inhibition Apo pol 10',DRC-1; 10'; concentration 80,55%
same,% inhibition Apol 90',DRC-1; 90'; concentration 2.5,1.64%
same,% inhibition Apol 90',DRC-1; 90'; concentration 5,16%
same,% inhibition Apol 90',DRC-1; 90'; concentration 10,49%
same,% inhibition Apol 90',DRC-1; 90'; concentration 20,59%
same,% inhibition Apol 90',DRC-1; 90'; concentration 40,58%
same,% inhibition Apol 90',DRC-1; 90'; concentration 80,54%
same,% inhibition apPOL 180',DRC-1; 180'; concentration 2.5,-3.8%
same,% inhibition apPOL 180',DRC-1; 180'; concentration 5,6%
same,% inhibition apPOL 180',DRC-1; 180'; concentration 10,33%
same,% inhibition apPOL 180',DRC-1; 180'; concentration 20,39%
same,% inhibition apPOL 180',DRC-1; 180'; concentration 40,34%
same,% inhibition apPOL 180',DRC-1; 180'; concentration 80,34%
same,% inhibition Apo pol 5',"DRC-2, 5', concentration 2.5",5.33%
same,% inhibition Apo pol 5',"DRC-2, 5', concentration 5",20%
same,% inhibition Apo pol 5',"DRC-2, 5', concentration 10",36%
same,% inhibition Apo pol 5',"DRC-2, 5', concentration 20",45%
same,% inhibition Apo pol 5',"DRC-2, 5', concentration 40",43%
same,% inhibition Apo pol 5',"DRC-2, 5', concentration 80",30%
same,% inhibition Apol 40',"DRC-2, 40', concentration 2.5",4%
same,% inhibition Apol 40',"DRC-2, 40', concentration 5",23%
same,% inhibition Apol 40',"DRC-2, 40', concentration 10",40%
same,% inhibition Apol 40',"DRC-2, 40', concentration 20",54%
same,% inhibition Apol 40',"DRC-2, 40', concentration 40",56%
same,% inhibition Apol 40',"DRC-2, 40', concentration 80",47%
same,% inhibition ApPOL 90',"DRC-2, 90', concentration 2.5",4.38%
same,% inhibition ApPOL 90',"DRC-2, 90', concentration 5",23%
same,% inhibition ApPOL 90',"DRC-2, 90', concentration 10",39%
same,% inhibition ApPOL 90',"DRC-2, 90', concentration 20",54%
same,% inhibition ApPOL 90',"DRC-2, 90', concentration 40",55%
same,% inhibition ApPOL 90',"DRC-2, 90', concentration 80",48%
same,% inhibition apPOL 180',"DRC-2, 180', concentration 2.5",0.809%
same,% inhibition apPOL 180',"DRC-2, 180', concentration 5",16%
same,% inhibition apPOL 180',"DRC-2, 180', concentration 10",29%
same,% inhibition apPOL 180',"DRC-2, 180', concentration 20",45%
same,% inhibition apPOL 180',"DRC-2, 180', concentration 40",45%
same,% inhibition apPOL 180',"DRC-2, 180', concentration 80",37%
same,% inhibition Apo pol 5',DRC-2; 5'; concentration 20,45%
same,% inhibition Apol 40',DRC-2; 40'; concentration 5,23%
same,% inhibition Apol 40',DRC-2; 40'; concentration 20,54%
same,% inhibition ApPOL 90',DRC-2; 90'; concentration 5,23%
same,% inhibition ApPOL 90',DRC-2; 90'; concentration 10,39%
same,% inhibition ApPOL 90',DRC-2; 90'; concentration 20,54%
same,% inhibition ApPOL 90',DRC-2; 90'; concentration 40,55%
same,% inhibition apPOL 180',DRC-2; 180'; concentration 5,16%
same,% inhibition apPOL 180',DRC-2; 180'; concentration 20,45%
same,% inhibition apPOL 180',DRC-2; 180'; concentration 40,45%
same,% inhibition Apo pol 10',first dose-response; 10'; concentration 80,55%
same,% inhibition Apol 90',first dose-response; 90'; concentration 5,16%
same,% inhibition Apol 90',first dose-response; 90'; concentration 80,54%
same,% inhibition apPOL 180',first dose-response; 180'; concentration 20,39%
same,% inhibition apPOL 180',first dose-response; 180'; concentration 40,34%
same,% inhibition apPOL 180',first dose-response; 180'; concentration 80,34%
same,DNA Pol,"primary screen value, 'DNA Pol' only; 90 min, 10 µM",46
Cn1nc(C(=O)N2CCc3c(nc4cc(-c5ccccc5)[nH]n4c3=O)C2)c2ccccc21 [Molecule 18],IC50,[1],6.38 µM
"O=C(Cn1ccc2c(=O)[nH]ccc21)Nc1ccccc1Cl [Molecule 19, O=C(Cn1ccc2c1cc[nH]c2=O)Nc1ccccc1Cl]",% inhibition Apo pol 10',DRC-1; concentration 2.5; 10',11.0481%
same,% inhibition Apol 90',DRC-1; concentration 2.5; 90',3.184%
same,% inhibition apPOL 180',DRC-1; concentration 2.5; 180',-2.947%
same,% inhibition Apo pol 10',DRC-1; concentration 5; 10',18.9507%
same,% inhibition Apol 90',DRC-1; concentration 5; 90',7.548%
same,% inhibition apPOL 180',DRC-1; concentration 5; 180',-2.382%
same,% inhibition Apo pol 10',DRC-1; concentration 10; 10',79.9443%
same,% inhibition Apol 90',DRC-1; concentration 10; 90',71.2049%
same,% inhibition apPOL 180',DRC-1; concentration 10; 180',56.5053%
same,% inhibition Apo pol 10',DRC-1; concentration 20; 10',88.2896%
same,% inhibition Apol 90',DRC-1; concentration 20; 90',90.2431%
same,% inhibition apPOL 180',DRC-1; concentration 20; 180',88.4548%
same,% inhibition Apo pol 10',DRC-1; concentration 40; 10',86.4384%
same,% inhibition Apol 90',DRC-1; concentration 40; 90',91.2458%
same,% inhibition apPOL 180',DRC-1; concentration 40; 180',93.0665%
same,% inhibition Apo pol 10',DRC-1; concentration 80 (unit not given); 10',78.354%
same,% inhibition Apol 90',DRC-1; concentration 80; 90',86.1065%
same,% inhibition apPOL 180',DRC-1; concentration 80; 180',89.6716%
same,% inhibition Apol 40',DRC-2; 40'; concentration 10,65%
same,% inhibition Apol 40',DRC-2; 40'; concentration 40,65%
same,% inhibition apPOL 180',DRC-2; 180'; concentration 20,77%
same,% inhibition apPOL 180',DRC-2; 180'; concentration 40,77%
same,% inhibition Apo pol 5',DRC-2; concentration 2.5; 5',15%
same,% inhibition Apol 40',DRC-2; concentration 2.5; 40',14%
same,% inhibition ApPOL 90',DRC-2; concentration 2.5; 90',9%
same,% inhibition apPOL 180',DRC-2; concentration 2.5; 180',-0.373%
same,% inhibition Apo pol 5',DRC-2; concentration 5; 5',30%
same,% inhibition Apol 40',DRC-2; concentration 5; 40',36%
same,% inhibition ApPOL 90',DRC-2; concentration 5; 90',32%
same,% inhibition apPOL 180',DRC-2; concentration 5; 180',18%
same,% inhibition Apo pol 5',DRC-2; concentration 10; 5',48%
same,% inhibition Apol 40',DRC-2; concentration 10; 40',65%
same,% inhibition ApPOL 90',DRC-2; concentration 10; 90',67%
same,% inhibition apPOL 180',DRC-2; concentration 10; 180',63%
same,% inhibition Apo pol 5',DRC-2; concentration 20; 5',44%
same,% inhibition Apol 40',DRC-2; concentration 20; 40',68%
same,% inhibition ApPOL 90',DRC-2; concentration 20; 90',73%
same,% inhibition apPOL 180',DRC-2; concentration 20; 180',77%
same,% inhibition Apo pol 5',DRC-2; concentration 40; 5',37%
same,% inhibition Apol 40',DRC-2; concentration 40; 40',65%
same,% inhibition ApPOL 90',DRC-2; concentration 40; 90',70%
same,% inhibition apPOL 180',DRC-2; concentration 40; 180',77%
same,% inhibition Apo pol 5',DRC-2; concentration 80; 5',28%
same,% inhibition Apol 40',DRC-2; concentration 80; 40',56%
same,% inhibition ApPOL 90',DRC-2; concentration 80; 90',64%
same,% inhibition apPOL 180',DRC-2; concentration 80; 180',72%
same,DNA Pol,"primary screen value of the 186 hits; unit not given; 90 min, 10 µM",82
same,DNA Pol,"primary screen value; head prints only 'DNA Pol'; 90 min, 10 µM",82
O=C(Cn1ccc2c(=O)[nH]ccc21)Nc1ccccc1Cl [Molecule 19],IC50,[1],6.87 µM
"N#Cc1c(C2CCCCC2)nc(Sc2ccc(C(F)(F)F)cc2[N+](=O)[O-])[nH]c1=O [Molecule 20, N#Cc1c(=O)[nH]c(nc1C1CCCCC1)Sc1ccc(cc1N(=O)=O)C(F)(F)F]",DNA Pol,"'DNA Pol' of the 186 hits list (primary screen result); unit not given; 90 min, 10 µM",99
same,% inhibition Apo pol 10',DRC-1; 10'; concentration 2.5,13.479%
same,% inhibition Apo pol 10',DRC-1; 10'; concentration 5,22.3075%
same,% inhibition Apo pol 10',DRC-1; 10'; concentration 10,58.5642%
same,% inhibition Apo pol 10',DRC-1; 10'; concentration 20,88.1341%
same,% inhibition Apo pol 10',DRC-1; 10'; concentration 40,96.8636%
same,% inhibition Apo pol 10',DRC-1; 10'; concentration 80,98.9889%
same,% inhibition Apol 90',DRC-1; 90'; concentration 2.5,11.5568%
same,% inhibition Apol 90',DRC-1; 90'; concentration 5,20.2551%
same,% inhibition Apol 90',DRC-1; 90'; concentration 10,55.7655%
same,% inhibition Apol 90',DRC-1; 90'; concentration 20,84.5767%
same,% inhibition Apol 90',DRC-1; 90'; concentration 40,95.5899%
same,% inhibition Apol 90',DRC-1; 90'; concentration 80,98.5408%
same,% inhibition apPOL 180',DRC-1; 180'; concentration 2.5,4.639%
same,% inhibition apPOL 180',DRC-1; 180'; concentration 5,10.6134%
same,% inhibition apPOL 180',DRC-1; 180'; concentration 10,43.2916%
same,% inhibition apPOL 180',DRC-1; 180'; concentration 20,78.9137%
same,% inhibition apPOL 180',DRC-1; 180'; concentration 40,94.1749%
same,% inhibition apPOL 180',DRC-1; 180'; concentration 80,98.1002%
same,% inhibition Apo pol 5',"DRC-2, 5', concentration 20 (unit not given)",55%
same,% inhibition Apol 40',"DRC-2, 40', concentration 10 (unit not given)",55%
same,% inhibition ApPOL 90',"DRC-2, 90', concentration 40 (unit not given)",77%
same,% inhibition apPOL 180',"DRC-2, 180', concentration 40 (unit not given)",77%
same,% inhibition Apo pol 5',DRC-2; 5'; concentration 2.5,3.66%
same,% inhibition Apo pol 5',DRC-2; 5'; concentration 5,11%
same,% inhibition Apo pol 5',DRC-2; 5'; concentration 10,43%
same,% inhibition Apo pol 5',DRC-2; 5'; concentration 20,55%
same,% inhibition Apo pol 5',DRC-2; 5'; concentration 40,60%
same,% inhibition Apo pol 5',DRC-2; 5'; concentration 80,61%
same,% inhibition Apol 40',DRC-2; 40'; concentration 2.5,6.56%
same,% inhibition Apol 40',DRC-2; 40'; concentration 5,16%
same,% inhibition Apol 40',DRC-2; 40'; concentration 10,55%
same,% inhibition Apol 40',DRC-2; 40'; concentration 20,68%
same,% inhibition Apol 40',DRC-2; 40'; concentration 40,75%
same,% inhibition Apol 40',DRC-2; 40'; concentration 80,78%
same,% inhibition ApPOL 90',DRC-2; 90'; concentration 2.5,4.51%
same,% inhibition ApPOL 90',DRC-2; 90'; concentration 5,13%
same,% inhibition ApPOL 90',DRC-2; 90'; concentration 10,54%
same,% inhibition ApPOL 90',DRC-2; 90'; concentration 20,69%
same,% inhibition ApPOL 90',DRC-2; 90'; concentration 40,77%
same,% inhibition ApPOL 90',DRC-2; 90'; concentration 80,82%
same,% inhibition apPOL 180',DRC-2; 180'; concentration 2.5,-0.258%
same,% inhibition apPOL 180',DRC-2; 180'; concentration 5,7%
same,% inhibition apPOL 180',DRC-2; 180'; concentration 10,46%
same,% inhibition apPOL 180',DRC-2; 180'; concentration 20,64%
same,% inhibition apPOL 180',DRC-2; 180'; concentration 40,77%
same,% inhibition apPOL 180',DRC-2; 180'; concentration 80,85%
same,DNA Pol,"primary screen value of the library well; unit not given; 90 min, 10 µM",99
N#Cc1c(C2CCCCC2)nc(Sc2ccc(C(F)(F)F)cc2[N+](=O)[O-])[nH]c1=O [Molecule 20],IC50,[1],8.81 µM
COc1cccc(C(=O)N2CCc3c(nc4cc(-c5ccccc5)[nH]n4c3=O)C2)c1OC [Molecule 22],IC50,[1],7.31 µM
